Values belong to the compound of their own block, whether it stands above or below them.
Assays:
Adenosine receptor A3 [1] = molecular target: T1, Adenosine receptor A3 (Rattus norvegicus, UniProt P28647); format: cell-based, HEK293
T1 sequence (P28647 whole entry): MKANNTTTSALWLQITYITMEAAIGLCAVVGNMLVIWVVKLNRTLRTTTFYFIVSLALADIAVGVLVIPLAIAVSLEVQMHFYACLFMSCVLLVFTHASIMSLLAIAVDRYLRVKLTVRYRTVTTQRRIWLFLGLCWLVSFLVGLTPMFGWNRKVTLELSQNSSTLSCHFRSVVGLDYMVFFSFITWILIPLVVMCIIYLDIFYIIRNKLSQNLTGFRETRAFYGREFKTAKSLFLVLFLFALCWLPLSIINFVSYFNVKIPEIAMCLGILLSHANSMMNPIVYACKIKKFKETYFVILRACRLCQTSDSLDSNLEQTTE

Adenosine receptor A3 [2] = molecular target: T2, Adenosine receptor A3 (Mus musculus, UniProt Q61618); format: cell-based, HEK293
T2 sequence (Q61618 whole entry): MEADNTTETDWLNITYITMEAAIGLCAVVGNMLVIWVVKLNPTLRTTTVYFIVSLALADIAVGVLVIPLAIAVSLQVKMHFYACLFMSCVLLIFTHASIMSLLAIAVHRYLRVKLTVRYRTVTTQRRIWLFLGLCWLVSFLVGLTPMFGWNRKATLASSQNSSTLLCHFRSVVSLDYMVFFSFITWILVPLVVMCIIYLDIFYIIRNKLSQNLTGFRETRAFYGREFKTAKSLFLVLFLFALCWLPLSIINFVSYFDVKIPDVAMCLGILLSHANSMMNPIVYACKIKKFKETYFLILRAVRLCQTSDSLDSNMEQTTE

Adenosine receptor A3 [3] = molecular target: T3, Adenosine receptor A3 (Homo sapiens, UniProt P0DMS8); format: cell-based, HEK293
T3 sequence (P0DMS8 whole entry): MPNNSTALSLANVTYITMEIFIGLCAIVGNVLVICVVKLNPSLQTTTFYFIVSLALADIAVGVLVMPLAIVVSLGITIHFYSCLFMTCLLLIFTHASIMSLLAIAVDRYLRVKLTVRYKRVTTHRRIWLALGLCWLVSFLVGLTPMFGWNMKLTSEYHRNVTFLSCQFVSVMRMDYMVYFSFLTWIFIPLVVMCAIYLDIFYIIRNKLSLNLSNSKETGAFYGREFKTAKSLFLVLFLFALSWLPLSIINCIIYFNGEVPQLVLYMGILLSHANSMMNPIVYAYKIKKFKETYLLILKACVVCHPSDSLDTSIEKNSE

[4] = molecular target: Adenosine receptor A2b (Rattus norvegicus) (UniProt P29276); test: Displacement of [3H] DPCPX from rat adenosine A2B receptor expressed in HEK293 cells at 10 uM incubated for 60 mins by radioligand binding assay; format: cell-based
[5] = molecular target: Adenosine receptor A2b (Mus musculus) (UniProt Q60614); test: Displacement of [3H] DPCPX from mouse adenosine A2B receptor expressed in HEK293 cells at 10 uM incubated for 60 mins by radioligand binding assay; format: cell-based
[6] = molecular target: Adenosine receptor A2b (Homo sapiens) (UniProt P29275); test: Displacement of [3H] DPCPX from human adenosine A2B receptor expressed in HEK293 cells at 10 uM incubated for 60 mins by radioligand binding assay; format: cell-based
[7] = molecular target: Adenosine receptor A2a (Rattus norvegicus) (UniProt P30543); test: Displacement of [3H] ZM241385 from rat adenosine A2A receptor expressed in HEK293 cells at 10 uM incubated for 60 mins by radioligand binding assay; format: cell-based
[8] = molecular target: Adenosine receptor A2a (Mus musculus) (UniProt Q60613); test: Displacement of [3H] ZM241385 from mouse adenosine A2A receptor expressed in HEK293 cells at 10 uM incubated for 60 mins by radioligand binding assay; format: cell-based
Adenosine receptor A2a [9] = molecular target: T4, Adenosine receptor A2a (Homo sapiens, UniProt P29274); test: Displacement of [3H] ZM241385 from human adenosine A2A receptor expressed in HEK293 cells at 10 uM incubated for 60 mins by radioligand binding assay; format: cell-based
[10] = molecular target: Adenosine receptor A1 (Mus musculus) (UniProt Q60612); test: Displacement of [3H] DPCPX from mouse adenosine A1 receptor expressed in HEK293 cells at 10 uM incubated for 60 mins by radioligand binding assay; format: cell-based
[11] = molecular target: T5, Adenosine receptor A1 (Homo sapiens) (UniProt P30542); test: Displacement of [3H] DPCPX from human adenosine A1 receptor expressed in HEK293 cells at 10 uM incubated for 60 mins by radioligand binding assay; format: cell-based
T5 sequence (whole entry): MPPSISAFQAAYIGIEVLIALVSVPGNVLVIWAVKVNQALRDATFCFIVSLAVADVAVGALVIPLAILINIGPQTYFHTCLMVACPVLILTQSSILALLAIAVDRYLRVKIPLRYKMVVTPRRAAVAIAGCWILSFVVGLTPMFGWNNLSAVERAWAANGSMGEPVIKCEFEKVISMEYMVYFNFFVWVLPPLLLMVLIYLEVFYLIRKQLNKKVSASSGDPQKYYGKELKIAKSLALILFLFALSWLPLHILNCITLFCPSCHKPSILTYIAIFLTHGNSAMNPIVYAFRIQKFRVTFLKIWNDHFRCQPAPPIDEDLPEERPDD

[12] = molecular target: Adenosine receptor A1 (Rattus norvegicus) (UniProt P25099); test: Displacement of [3H] DPCPX from rat adenosine A1 receptor expressed in HEK293 cells at 10 uM incubated for 60 mins by radioligand binding assay; format: cell-based
[13] = Lipophilicity, logP of compound; format: physicochemical; details: octanol/water
Adenosine receptor A2b [14] = molecular target: Adenosine receptor A2b (Rattus norvegicus, UniProt P29276); test: Displacement of [3H] DPCPX from rat adenosine A2B receptor expressed in HEK293 cells incubated for 60 mins by radioligand binding assay; format: cell-based
Adenosine receptor A2b [15] = molecular target: Adenosine receptor A2b (Mus musculus, UniProt Q60614); test: Displacement of [3H] DPCPX from mouse adenosine A2B receptor expressed in HEK293 cells incubated for 60 mins by radioligand binding assay; format: cell-based
Adenosine receptor A2b [16] = molecular target: Adenosine receptor A2b (Homo sapiens, UniProt P29275); test: Displacement of [3H] DPCPX from human adenosine A2B receptor expressed in HEK293 cells incubated for 60 mins by radioligand binding assay; format: cell-based
Adenosine receptor A2a [17] = molecular target: Adenosine receptor A2a (Mus musculus, UniProt Q60613); test: Displacement of [3H] ZM241385 from mouse adenosine A2A receptor expressed in HEK293 cells incubated for 60 mins by radioligand binding assay; format: cell-based
Adenosine receptor A2a [18] = molecular target: Adenosine receptor A2a (Rattus norvegicus, UniProt P30543); test: Displacement of [3H] ZM241385 from rat adenosine A2A receptor expressed in HEK293 cells incubated for 60 mins by radioligand binding assay; format: cell-based
Adenosine receptor A2a [19] = molecular target: T4, Adenosine receptor A2a; test: Displacement of [3H] ZM241385 from human adenosine A2A receptor expressed in HEK293 cells incubated for 60 mins by radioligand binding assay; format: cell-based
Adenosine receptor A1 [20] = molecular target: Adenosine receptor A1 (Rattus norvegicus, UniProt P25099); test: Displacement of [3H] DPCPX from rat adenosine A1 receptor expressed in HEK293 cells incubated for 60 mins by radioligand binding assay; format: cell-based
Adenosine receptor A1 [21] = molecular target: T6, Adenosine receptor A1 (Mus musculus, UniProt Q60612); test: Displacement of [3H] DPCPX from mouse adenosine A1 receptor expressed in HEK293 cells incubated for 60 mins by radioligand binding assay; format: cell-based
T6 sequence (Q60612 whole entry): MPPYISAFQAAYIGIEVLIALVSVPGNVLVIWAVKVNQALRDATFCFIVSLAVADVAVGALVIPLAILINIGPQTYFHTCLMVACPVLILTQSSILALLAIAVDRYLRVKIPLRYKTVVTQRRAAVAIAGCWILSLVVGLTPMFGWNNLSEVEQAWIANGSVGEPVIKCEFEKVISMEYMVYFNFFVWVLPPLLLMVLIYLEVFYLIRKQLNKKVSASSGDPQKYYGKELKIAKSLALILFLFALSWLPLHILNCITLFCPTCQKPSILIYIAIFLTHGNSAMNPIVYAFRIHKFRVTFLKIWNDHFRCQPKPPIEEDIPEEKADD

Adenosine receptor A1 [22] = molecular target: T7, Adenosine receptor A1 (Homo sapiens, UniProt P30542); test: Displacement of [3H] DPCPX from human adenosine A1 receptor expressed in HEK293 cells incubated for 60 mins by radioligand binding assay; format: cell-based
T7 sequence (P30542 whole entry): T5 sequence (whole entry)

[23] = molecular target: Muscarinic acetylcholine receptor M5 (Homo sapiens, UniProt P08912); test: Binding affinity to human M5 receptor by radioligand binding assay
[24] = molecular target: 5-hydroxytryptamine receptor 2A (Homo sapiens, UniProt P28223); test: Binding affinity to human 5-HT2A receptor by radioligand binding assay
[25] = molecular target: 5-hydroxytryptamine receptor 2C (Homo sapiens, UniProt P28335); test: Binding affinity to human 5-HT2C receptor by radioligand binding assay
[26] = C0 in Sprague-Dawley rat plasma at 1 mg/kg, iv measured after 8 hrs by LC-MS/MS analysis; format: ADME, organism-based
[27] = C0 in Sprague-Dawley rat brain at 1 mg/kg, iv measured after 8 hrs by LC-MS/MS analysis; format: ADME, organism-based
[28] = Drug concentration in Sprague-Dawley rat plasma assessed as average concentration at 1 mg/kg, iv measured after 8 hrs by LC-MS/MS analysis; format: ADME, organism-based; details: in vivo
[29] = Drug concentration in Sprague-Dawley rat brain concentration assessed as average concentration at 1 mg/kg, iv measured after 8 hrs by LC-MS/MS analysis; format: ADME, organism-based; details: in vivo
[30] = Clearance in Sprague-Dawley rat plasma at 1 mg/kg, iv measured after 8 hrs by LC-MS/MS analysis; format: ADME, organism-based
[31] = Volume of distribution in Sprague-Dawley rat plasma at 1 mg/kg, iv measured after 8 hrs by LC-MS/MS analysis; format: ADME, organism-based
[32] = Volume of distribution in Sprague-Dawley rat brain at 1 mg/kg, iv measured after 8 hrs by LC-MS/MS analysis; format: ADME, organism-based
[33] = Half life in Sprague-Dawley rat plasma at 1 mg/kg, iv measured after 8 hrs by LC-MS/MS analysis; format: ADME, organism-based
[34] = Half life in Sprague-Dawley rat brain at 1 mg/kg, iv measured after 8 hrs by LC-MS/MS analysis; format: ADME, organism-based
[35] = Fraction unbound in Sprague-Dawley rat plasma assessed as unbound fraction at 1 mg/kg, iv measured after 8 hrs by LC-MS/MS analysis; format: ADME, organism-based
[36] = Fraction unbound in Sprague-Dawley rat brain assessed as unbound fraction at 1 mg/kg, iv measured after 8 hrs by LC-MS/MS analysis; format: ADME, organism-based
Adenosine receptor A3 [37] = molecular target: T1, Adenosine receptor A3; test: Binding affinity to rat adenosine A3 receptor measured by radioligand binding assay
Adenosine receptor A3 [38] = molecular target: T2, Adenosine receptor A3; test: Binding affinity to mouse adenosine A3 receptor measured by radioligand binding assay

T4 sequence (P29274 whole entry): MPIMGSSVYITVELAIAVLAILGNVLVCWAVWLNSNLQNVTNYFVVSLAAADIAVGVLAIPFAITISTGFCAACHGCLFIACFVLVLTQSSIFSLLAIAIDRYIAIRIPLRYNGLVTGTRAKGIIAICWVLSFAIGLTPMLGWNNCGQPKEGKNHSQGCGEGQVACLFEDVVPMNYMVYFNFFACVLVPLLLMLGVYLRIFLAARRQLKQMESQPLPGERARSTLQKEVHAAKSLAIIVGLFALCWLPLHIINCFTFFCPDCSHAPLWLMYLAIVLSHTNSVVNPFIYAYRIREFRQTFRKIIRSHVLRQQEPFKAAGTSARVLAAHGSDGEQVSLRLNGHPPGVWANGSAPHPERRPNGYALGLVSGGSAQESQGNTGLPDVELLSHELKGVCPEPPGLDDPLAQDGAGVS
Sequence of Adenosine receptor A1 (Rattus norvegicus) (P25099 whole entry): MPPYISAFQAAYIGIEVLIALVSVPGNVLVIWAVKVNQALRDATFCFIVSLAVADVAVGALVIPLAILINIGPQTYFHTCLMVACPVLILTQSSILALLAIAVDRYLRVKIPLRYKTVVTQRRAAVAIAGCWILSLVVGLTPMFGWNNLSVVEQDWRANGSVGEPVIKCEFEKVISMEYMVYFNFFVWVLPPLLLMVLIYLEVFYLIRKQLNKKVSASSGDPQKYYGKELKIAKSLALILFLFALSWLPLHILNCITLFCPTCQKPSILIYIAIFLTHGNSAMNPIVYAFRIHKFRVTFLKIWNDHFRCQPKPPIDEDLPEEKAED
Sequence of Adenosine receptor A1 (Rattus norvegicus, UniProt P25099) (P25099 whole entry): as above
Sequence of Adenosine receptor A2b (Mus musculus, UniProt Q60614) (Q60614 whole entry): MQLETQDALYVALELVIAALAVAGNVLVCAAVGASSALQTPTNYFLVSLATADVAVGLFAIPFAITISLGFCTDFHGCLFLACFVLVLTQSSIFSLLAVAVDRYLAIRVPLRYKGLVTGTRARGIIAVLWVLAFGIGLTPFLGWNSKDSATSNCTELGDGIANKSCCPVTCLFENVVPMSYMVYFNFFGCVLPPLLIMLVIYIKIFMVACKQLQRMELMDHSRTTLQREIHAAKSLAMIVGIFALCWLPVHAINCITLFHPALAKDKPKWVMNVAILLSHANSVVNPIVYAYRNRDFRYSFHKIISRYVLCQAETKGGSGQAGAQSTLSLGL
Sequence of Adenosine receptor A2b (Mus musculus) (Q60614 whole entry): as above
Sequence of Muscarinic acetylcholine receptor M5 (P08912 whole entry): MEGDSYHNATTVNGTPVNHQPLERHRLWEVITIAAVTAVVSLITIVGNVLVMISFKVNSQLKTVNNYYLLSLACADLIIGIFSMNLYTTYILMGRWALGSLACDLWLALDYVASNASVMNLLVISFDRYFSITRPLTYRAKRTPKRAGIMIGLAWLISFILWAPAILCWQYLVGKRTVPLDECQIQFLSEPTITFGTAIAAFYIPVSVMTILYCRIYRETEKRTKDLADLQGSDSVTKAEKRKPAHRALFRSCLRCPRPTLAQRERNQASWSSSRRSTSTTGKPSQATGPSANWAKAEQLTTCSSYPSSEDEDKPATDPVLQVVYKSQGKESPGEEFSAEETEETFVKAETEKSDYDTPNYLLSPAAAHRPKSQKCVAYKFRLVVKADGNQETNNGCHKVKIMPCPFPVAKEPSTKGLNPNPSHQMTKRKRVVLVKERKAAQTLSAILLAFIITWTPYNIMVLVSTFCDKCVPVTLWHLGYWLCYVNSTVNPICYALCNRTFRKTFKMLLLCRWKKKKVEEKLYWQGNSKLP
Sequence of 5-hydroxytryptamine receptor 2C (P28335 whole entry): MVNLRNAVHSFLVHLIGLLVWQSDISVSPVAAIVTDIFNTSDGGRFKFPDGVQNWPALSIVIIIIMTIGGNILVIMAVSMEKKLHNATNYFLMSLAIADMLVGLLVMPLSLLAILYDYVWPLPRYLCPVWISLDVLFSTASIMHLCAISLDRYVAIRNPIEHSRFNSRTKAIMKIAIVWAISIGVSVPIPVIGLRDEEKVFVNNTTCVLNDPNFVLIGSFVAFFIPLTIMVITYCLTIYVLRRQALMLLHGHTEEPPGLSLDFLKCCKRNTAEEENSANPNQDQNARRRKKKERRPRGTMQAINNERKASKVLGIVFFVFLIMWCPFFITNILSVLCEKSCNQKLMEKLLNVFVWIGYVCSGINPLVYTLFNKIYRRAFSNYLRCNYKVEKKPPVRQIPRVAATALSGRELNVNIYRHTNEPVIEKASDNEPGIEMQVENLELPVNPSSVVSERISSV
Sequence of 5-hydroxytryptamine receptor 2A (P28223 whole entry): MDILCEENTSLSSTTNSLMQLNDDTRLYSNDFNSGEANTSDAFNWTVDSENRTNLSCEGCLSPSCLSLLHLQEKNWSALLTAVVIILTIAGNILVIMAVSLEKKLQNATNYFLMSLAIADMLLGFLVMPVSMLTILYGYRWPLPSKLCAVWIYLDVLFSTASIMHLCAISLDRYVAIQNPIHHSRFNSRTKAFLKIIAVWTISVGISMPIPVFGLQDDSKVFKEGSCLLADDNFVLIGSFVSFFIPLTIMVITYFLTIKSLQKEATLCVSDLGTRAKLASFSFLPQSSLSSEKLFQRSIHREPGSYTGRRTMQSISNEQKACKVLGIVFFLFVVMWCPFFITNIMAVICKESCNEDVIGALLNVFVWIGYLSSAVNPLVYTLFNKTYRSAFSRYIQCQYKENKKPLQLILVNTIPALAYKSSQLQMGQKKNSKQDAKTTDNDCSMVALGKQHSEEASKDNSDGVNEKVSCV
Sequence of Adenosine receptor A2b (Rattus norvegicus, UniProt P29276) (P29276 whole entry): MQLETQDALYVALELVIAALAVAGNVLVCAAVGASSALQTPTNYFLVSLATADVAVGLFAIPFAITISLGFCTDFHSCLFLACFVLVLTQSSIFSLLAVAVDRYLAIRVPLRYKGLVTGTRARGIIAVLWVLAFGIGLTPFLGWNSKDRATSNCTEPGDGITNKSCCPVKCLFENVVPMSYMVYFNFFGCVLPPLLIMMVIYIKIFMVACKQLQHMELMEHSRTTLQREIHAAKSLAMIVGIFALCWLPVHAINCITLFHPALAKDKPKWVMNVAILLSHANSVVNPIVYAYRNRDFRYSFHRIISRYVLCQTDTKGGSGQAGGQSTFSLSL
Sequence of Adenosine receptor A2b (Rattus norvegicus) (P29276 whole entry): as above
Sequence of Adenosine receptor A2a (Mus musculus) (Q60613 whole entry): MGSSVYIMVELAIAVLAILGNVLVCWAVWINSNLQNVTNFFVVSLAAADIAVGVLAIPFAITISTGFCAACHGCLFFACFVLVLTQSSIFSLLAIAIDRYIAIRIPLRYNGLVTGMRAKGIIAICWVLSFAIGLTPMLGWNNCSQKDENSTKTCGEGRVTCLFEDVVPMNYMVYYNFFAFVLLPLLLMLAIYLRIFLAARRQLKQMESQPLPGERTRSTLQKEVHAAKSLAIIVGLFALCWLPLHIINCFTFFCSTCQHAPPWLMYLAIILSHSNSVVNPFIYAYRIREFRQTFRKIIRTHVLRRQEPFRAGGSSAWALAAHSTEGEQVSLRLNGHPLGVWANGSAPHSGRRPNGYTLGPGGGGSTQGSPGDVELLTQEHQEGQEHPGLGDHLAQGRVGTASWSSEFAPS
Sequence of Adenosine receptor A2a (Mus musculus, UniProt Q60613) (Q60613 whole entry): as above
Sequence of Adenosine receptor A2a (Rattus norvegicus, UniProt P30543) (P30543 whole entry): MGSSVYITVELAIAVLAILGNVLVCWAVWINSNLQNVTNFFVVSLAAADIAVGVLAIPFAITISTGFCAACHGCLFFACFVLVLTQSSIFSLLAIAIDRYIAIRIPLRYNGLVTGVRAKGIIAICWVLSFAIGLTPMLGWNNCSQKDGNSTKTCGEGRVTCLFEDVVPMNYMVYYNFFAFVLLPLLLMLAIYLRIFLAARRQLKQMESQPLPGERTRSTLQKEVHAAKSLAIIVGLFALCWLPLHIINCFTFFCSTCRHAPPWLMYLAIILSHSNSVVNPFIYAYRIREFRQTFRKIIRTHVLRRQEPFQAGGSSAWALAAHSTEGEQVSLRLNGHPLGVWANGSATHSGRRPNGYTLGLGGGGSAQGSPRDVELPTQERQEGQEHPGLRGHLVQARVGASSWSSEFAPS
Sequence of Adenosine receptor A2a (Rattus norvegicus) (P30543 whole entry): as above
Sequence of Adenosine receptor A2b (Homo sapiens, UniProt P29275) (P29275 whole entry): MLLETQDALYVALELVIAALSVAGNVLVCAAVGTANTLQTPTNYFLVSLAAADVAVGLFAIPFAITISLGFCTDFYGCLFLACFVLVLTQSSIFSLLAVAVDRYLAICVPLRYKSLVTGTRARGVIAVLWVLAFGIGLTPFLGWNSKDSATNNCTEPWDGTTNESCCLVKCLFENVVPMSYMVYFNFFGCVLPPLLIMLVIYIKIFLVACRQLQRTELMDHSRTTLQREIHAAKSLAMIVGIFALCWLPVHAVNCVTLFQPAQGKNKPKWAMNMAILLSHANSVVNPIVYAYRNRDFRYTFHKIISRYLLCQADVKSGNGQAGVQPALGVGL
Sequence of Adenosine receptor A2b (Homo sapiens) (P29275 whole entry): as above

Ki (Adenosine receptor A3 [1]): 216 nM
Ki (Adenosine receptor A3 [2]): 349 nM
Ki (Adenosine receptor A3 [3]): 43.9 nM
inhibition [4]: 38.8%
inhibition [5]: 20.2%
inhibition [6]: 34.5%
inhibition [7]: 7.4%
inhibition [8]: 25.1%
inhibition (Adenosine receptor A2a [9]): 16.4%
inhibition [10]: 27.4%
inhibition [11]: 35.4%
inhibition [12]: 25.5%
Compound: CCCOC(=O)c1c(-c2ccccc2)nc(CC)c(C(=O)SCC)c1CCC

Ki (Adenosine receptor A3 [1]): 8.53 nM
Ki (Adenosine receptor A3 [2]): 9.61 nM
logP [13]: 4.68
Ki (Adenosine receptor A2b [14]): 163 nM
Ki (Adenosine receptor A2b [15]): 189 nM
Ki (Adenosine receptor A2b [16]): 230 nM
Ki (Adenosine receptor A2a [17]): 830 nM
Ki (Adenosine receptor A2a [18]): 1150 nM
Ki (Adenosine receptor A2a [19]): 121 nM
Ki (Adenosine receptor A1 [20]): 333 nM
Ki (Adenosine receptor A1 [21]): 411 nM
Ki (Adenosine receptor A1 [22]): 162 nM
Ki [23]: 3700 nM
Ki [24]: 960 nM
Ki [25]: 790 nM
C0 at 8 h [26]: 628 ng/mL
C0 at 8 h [27]: 760 ng/mL
Cave [28]: 52 ng/mL
Cave [29]: 95 ng/mL
clearance [30]: 40 mL/min/kg
Vd [31]: 1.8 L/kg
Vd [32]: 1.9 L/kg
half-life [33]: 48 min
half-life [34]: 42 min
fraction unbound at 8 h [35]: 0.03
fraction unbound at 8 h [36]: 0.03
Compound: Cc1cc(C)cc(-c2nc(NC(=O)c3cccnc3)sc2-c2ccncc2)c1

Ki (Adenosine receptor A3 [2]): 120 nM
Ki (Adenosine receptor A3 [3]): 18.9 nM
inhibition (Adenosine receptor A2a [9]): 15%
Ki (Adenosine receptor A1 [22]): 1570 nM
Compound: COC(=O)/C=C/c1cc(C)cc(-c2nc(NC(=O)c3cccnc3)sc2-c2ccncc2)c1

Kd (Adenosine receptor A3 [37]): 0.17 nM
Compound: CNC(=O)[C@@]12C[C@@H]1[C@@H](n1cnc3c(NCc4cccc(I)c4)nc(Cl)nc31)[C@H](O)[C@@H]2O

Ki (Adenosine receptor A3 [37]): > 10000 nM
Ki (Adenosine receptor A3 [38]): 6360 nM
Compound: CC[C@@H]1CN2C(=O)N(C)c3nc(-c4ccccc4)[nH]c3C2=N1

Ki (Adenosine receptor A3 [3]): 69.2 nM
Ki (Adenosine receptor A2a [19]): 3550 nM
Ki (Adenosine receptor A1 [22]): 78.7 nM
Compound: Cc1cc(F)cc(-c2nc(NC(=O)c3cccnc3)sc2-c2ccncc2)c1
